Laboratory results published in patent US6706880B2 (Research Triangle Institute, priority 1990, dated 2004).
Structures can show the parent of a compound that is named as a salt. Where two headings read alike, the source gives them in different places.

Columns and labels:
dopamine transporter = dopamine transporter (UniProt P23977); type: binding
Text: (§1) Illustrative in vitro assays for binding are described in Boja et al Ann. NY Acad. Sci. 654:282-291 (1992), which is incorporated herein by reference in its entirety. […] Alternatively, the compounds may be analyzed by their ability to inhibit reuptake of a labelled neurotransmitter in a sample, in particular, in synaptosomes.

[1] = biological target: norepinephrine transporter (UniProt Q9WTR4); experiment: Inhibition of [3H]nisoxetine radioligand binding at the norepinephrine transporter
Text: as §1

serotonin transporter = biological target: T1, serotonin transporter (Rattus norvegicus, UniProt P31652); experiment: Inhibition of [3H]paroxetine radioligand binding at the serotonin transporter
T1 construct: from tissue
T1 sequence (P31652 whole entry): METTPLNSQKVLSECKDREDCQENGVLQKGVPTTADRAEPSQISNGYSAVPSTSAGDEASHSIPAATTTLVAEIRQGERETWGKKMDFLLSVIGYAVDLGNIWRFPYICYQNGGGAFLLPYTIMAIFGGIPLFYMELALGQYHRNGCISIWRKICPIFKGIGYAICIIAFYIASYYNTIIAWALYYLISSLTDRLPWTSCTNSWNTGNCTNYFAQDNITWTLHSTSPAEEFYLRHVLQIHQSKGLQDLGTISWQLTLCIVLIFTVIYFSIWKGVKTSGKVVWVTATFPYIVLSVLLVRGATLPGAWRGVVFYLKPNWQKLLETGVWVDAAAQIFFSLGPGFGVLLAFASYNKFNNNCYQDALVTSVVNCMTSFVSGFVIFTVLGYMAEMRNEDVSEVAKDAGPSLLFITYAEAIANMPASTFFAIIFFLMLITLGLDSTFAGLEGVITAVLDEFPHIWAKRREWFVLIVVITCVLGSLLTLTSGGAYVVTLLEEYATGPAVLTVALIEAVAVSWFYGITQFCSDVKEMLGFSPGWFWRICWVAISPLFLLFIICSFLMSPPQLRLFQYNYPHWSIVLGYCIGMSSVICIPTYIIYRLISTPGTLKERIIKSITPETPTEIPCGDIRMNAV
Text: as §1

[2] = read-out: DA IC50 for inhibition of radioligand binding, DA=[3H]WIN 35,428
[3] = read-out: NEN IC50 for inhibition of radioligand binding, NEN=[3H] nisoxetine
[4] = 5-HT IC50 for inhibition of radioligand binding, 5-HT=[3H] paroxetine
[5] = 5-HT=[3H] paroxetine, read-out: 5-HT IC50 for inhibition of radioligand binding
[6] = read-out: IC50 DA [3H]-WIN 35,428, Table IV
[7] = read-out: IC50 NE [3H]-nisoxetine, Table IV
[8] = IC50 5-HT [3H]-paroxetine, Table IV
[9] = NEN=[3H] nisoxetine, read-out: NEN IC50 for inhibition of radioligand binding

Compound	IC50 (dopamine transporter; [2]) [nM]	IC50 [1, 3] [nM]	IC50 (serotonin transporter; [4]) [nM]	IC50 (serotonin transporter; [5]) [nM]	also measured
COC(=O)[C@@H]1C2CCC(C[C@@H]1c1ccc(Cl)c(C)c1)N2C (stereo partly shown) [RTI-4229-112]	0.82	36.2	10.5	–	–
COC(=O)C1C(c2ccc(I)cc2)CC2CCC1N2C (stereo not shown) [RTI-4229-55]	1.26	36	–	4.21	–
CC1C(c2ccc(Cl)cc2)CC2CCC1N2C (stereo not shown) [RTI-4229-139]	1.67	56.9	85	–	IC50 (dopamine transporter; [6]): 1.87 ± 0.13 nM; IC50 [1, 7]: 57 ± 2.6 nM; IC50 (serotonin transporter; [8]): 85 ± 9.3 nM
Cc1ccc(OC(=O)C2C(c3ccc(Cl)cc3)CC3CCC2N3C)cc1 (stereo not shown) [RTI-4229-206]	27.4	1280	–	1200	–
COC(=O)OCC1C(c2ccc(Cl)cc2)CC2CCC1N2C (stereo not shown) [RTI-4229-145]	9.6	1480	2930	–	IC50 (dopamine transporter; [6]): 9.6 ± 0.42 nM; IC50 [1, 7]: 1480 ± 96 nM; IC50 (serotonin transporter; [8]): 2930 ± 181 nM
CCc1ccc(C2CC3CCC(N3)C2C(=O)OC)cc1 (stereo not shown) [RTI-4229-173]	49.9	122	–	8.13	–
O=C1CCN2C3CCC2C1C(c1ccc(Cl)cc1)C3 (stereo not shown) [RTI-4229-243]	129	–	156	–	IC50 [1, 9]: 540 nM
CC(C)OC(=O)C1C(c2ccc(I)cc2)CC2CCC1N2C (stereo not shown) [RTI-4229-121]	0.43	285	55.8	–	–
C=C(C)c1ccc(C2CC3CCC(C2C(=O)OC)N3C)cc1 (stereo not shown) [RTI-4229-283]	14.3	3130	–	3.13	–
Fc1ccc(C2CC3CCC(N3)C2COc2ccc3c(c2)OCO3)cc1 (stereo not shown) [RTI-4229-274]	3.96	14.4	5.62	–	–
C=Cc1ccc(C2CC3CCC(N3)C2C(=O)OC)cc1 (stereo not shown) [RTI-4229-309]	1.73	14.9	–	2.25	–
Cc1ccc(C2CC3CCC([C@@H]2c2nc(-c4ccccc4)no2)N3C)cc1 (stereo partly shown) [RTI-4229-152]	494	22700	–	–	–
CCc1ccc(C2CC3CCC(N3)C2C(=O)OC)cc1I (stereo not shown) [RTI-4229-353]	331	148	–	0.69	IC50 (dopamine transporter; read-out: IC50 DA [3H] WIN 35,428, Table III): 331 ± 17 nM; IC50 ([1]; read-out: IC50 NE [3H] Nisoxetine, Table III): 148 ± 9.2 nM; potency at the serotonin site (serotonin transporter; in words): highly potent; selectivity relative to the dopamine and norepinephrine sites (serotonin transporter; in words): selective; IC50 (serotonin transporter; read-out: IC50 5-HT [3H] Paroxetine, Table III): 0.69 ± 0.07 nM
CN1C2CCC1C(C(=O)Oc1ccccc1)C(c1ccc(Cl)cc1)C2 (stereo not shown) [RTI-4229-113]	1.98	2960	–	2330	–
COC(=O)C1C(c2ccc(I)cc2)CC2CCC1N2C (stereo not shown) [RTI-4229-352]	2.86	52.4	–	64.9	–
COC(=O)[C@H]1[C@@H](c2ccc(C#Cc3ccccc3)cc2)C[C@@H]2CC[C@H]1N2C [RTI-4229-298]	3.7	347	46.8	–	–
CN1[C@H]2CC[C@@H]1[C@@H](CO)[C@@H](c1ccc(Br)cc1)C2 [RTI-99]	–	–	–	–	IC50 (dopamine transporter; [6]): 1.49 ± 0.06 nM; IC50 (serotonin transporter; [8]): 51 ± 4.6 nM
CC(C)OC(=O)C1C(c2ccc(Cl)cc2)CC2CCC1N2C (stereo not shown) [RTI-4229-114]	1.4	778	–	1400	–
Cc1ccc(C2CC3CCC(C2C(=O)OC2CC2)N3C)cc1 (stereo not shown) [RTI-4229-193]	1.68	544	–	1070	–

Compound	IC50 (dopamine transporter; [2]) [nM]	IC50 [1, 3] [nM]	IC50 (serotonin transporter; [4]) [nM]	IC50 (serotonin transporter; [5]) [nM]	also measured
Cc1ccc([C@H]2C[C@@H]3CC[C@H]([C@H]2CN)N3C)cc1 [RTI-131]	–	–	–	–	IC50 (dopamine transporter; [6]): 10.5 ± 1.7 nM; IC50 [1, 7]: 120 ± 20 nM; IC50 (serotonin transporter; [8]): 855 ± 52 nM
CCCc1ccc(C2CC3CCC(C2C(=O)OC)N3C)cc1 (stereo not shown) [RTI-4229-282]	68.5	3920	–	70.4	–
CN1[C@H]2CC[C@@H]1[C@@H](CO)[C@@H](c1ccc(F)cc1)C2 [RTI-100]	–	–	–	–	IC50 (dopamine transporter; [6]): 47 ± 4.6 nM; IC50 (serotonin transporter; [8]): 4740 ± 335 nM
C/C=C\c1ccc(C2C[C@H]3CCC(C2C(=O)OC)N3C)cc1 (stereo partly shown) [RTI-4229-304]	15	2800	7.09	–	–
CN1C2CCC1C(C(=O)Oc1ccccc1)C(c1ccc(Cl)cc1)C2 (stereo not shown) [RTI-4229-122]	1.5	3790	184	–	–
Cc1noc(C2C(c3ccc(Cl)cc3)CC3CCC2N3C)n1 (stereo not shown) [RTI-4229-125]	–	363	2580	–	–
Cc1ccc([C@H]2C[C@@H]3CC[C@H]([C@H]2C#N)N3C)cc1 [RTI-158, 3β-(4-Methylphenyl)-tropane-2β-nitrile Hydrochloride]	–	–	–	–	IC50 (dopamine transporter; [6]): 57 ± 7.3 nM; IC50 [1, 7]: 1620 ± 136 nM; IC50 (serotonin transporter; [8]): 5100 ± 315 nM
COC(=O)C1CN2C3CCC2C(C1=O)C(c1ccc(Cl)cc1)C3 (stereo not shown) [RTI-4229-242]	–	–	227	–	IC50 (dopamine transporter; DA=[3H]WIN 35,428, read-out: DA IC50 for inhibition of radioligand binding): 7.57 nM; IC50 [1, 9]: 510 nM
COC(=O)C1C(c2ccc(F)c(C)c2)CC2CCC1N2C (stereo not shown) [RTI-4229-96]	2.95	520	76	–	–
COc1ccc(-c2cc([C@@H]3C4CCC(C[C@@H]3c3ccc(Cl)cc3)N4C)on2)cc1 (stereo partly shown) [RTI-4229-346]	1.57	762	5880	–	–
COC(=O)[C@@H]1C2CCC(C[C@@H]1c1ccc(Cl)c(Cl)c1)N2C (stereo partly shown) [RTI-4229-111]	0.79	18	3.13	–	–
CN1C2CCC1[C@@H](c1cc(-c3ccc(Cl)cc3)no1)[C@@H](c1ccc(Cl)cc1)C2 (stereo partly shown) [RTI-4229-345]	6.42	5290	> 76000	–	–
Cc1cccc(OC(=O)C2C(c3ccc(Cl)cc3)CC3CCC2N3C)c1 (stereo not shown) [RTI-4229-203]	9.37	2740	–	2150	–
Cc1noc(C2C(c3ccccc3)CC3CCC2N3C)n1 (stereo not shown) [RTI-4229-126]	100	7880	3820	–	–
COC(=O)[C@@H]1C2CCC(C[C@@H]1c1ccc3ccccc3c1)N2C (stereo partly shown) [RTI-4229-318]	0.51	21.1	0.8	–	–
COC(=O)C1C2CCC(CC1c1ccc(C(C)C)cc1)N2 (stereo not shown) [RTI-4229-330]	310	–	–	15.1	–
CN1C2CCC1C(C(=O)OC1CC1)C(c1ccc(Cl)cc1)C2 (stereo not shown) [RTI-4229-190]	0.96	235	–	168	–
Cc1ccc(C2CC3CCC(C2C(=O)Oc2ccccc2)N3C)cc1 (stereo not shown) [RTI-4229-120]	3.26	5830	–	24500	–
COC(=O)C1C2CCC(C[C@H]1c1ccccc1)N2C (stereo partly shown) [RTI-4229-140]	101	2080	–	–	–

Compound	IC50 (dopamine transporter; [2]) [nM]	IC50 [1, 3] [nM]	IC50 (serotonin transporter; [4]) [nM]	IC50 (serotonin transporter; [5]) [nM]	also measured
COC(=O)C1C(c2ccc(Cl)cc2)CC2CCC1N2C (stereo not shown) [RTI-4229-31]	–	–	–	44.5	–
Cc1noc([C@@H]2C(c3ccccc3)CC3CCC2N3C)n1 (stereo partly shown) [RTI-4229-124]	1030	71000	33100	–	–
C/C=C/c1ccc(C2CC3CCC(C2C(=O)OC)N3C)cc1 (stereo not shown) [RTI-4229-296]	5.29	1590	–	11.4	–
CN1C2CCC1C(c1ccccc1)C(c1ccccc1)C2 (stereo not shown) [RTI-4229-348]	28.2	2670	–	34700	–
CCc1ccc(C2CC3CCC(C2C(=O)OC)N3C)cc1 (stereo not shown) [RTI-4229-83]	55	–	–	28.4	–
Cc1ccc(C2CC3CCC(C2C(=O)Oc2cccc(C)c2)N3C)cc1 (stereo not shown) [RTI-4229-205]	8.19	2140	–	5240	–
CCc1ccc(C2CC3CCC(N3)C2C(=O)OCc2ccccc2)cc1 (stereo not shown) [RTI-4229-338]	1100	3370	7.41	–	–
CCOC(=O)CN1C2CCC1C(C(=O)OC)C(c1ccc(Cl)cc1)C2 (stereo not shown) [RTI-4229-251]	1.93	114	10.1	–	–
Cc1ccc(C2CC3CCC([C@H]2c2nc(-c4ccccc4)no2)N3C)cc1 (stereo partly shown) [RTI-4229-151]	2.33	60	1070	–	–
CCc1ccc(C2CC3CCC(C2C(=O)OC)N3C)cc1I (stereo not shown) [RTI-4229-295]	21.3	1350	2.96	–	–
CN1[C@H]2CC[C@@H]1[C@@H](C(=O)O)[C@@H](c1ccc(F)cc1)C2 [RTI-104]	–	–	–	–	IC50 (dopamine transporter; [6]): 2740 ± 141 nM; IC50 [1, 7]: > 100000 nM; IC50 (serotonin transporter; [8]): > 100 nM
CC(C)OC(=O)C1C2CCC(CC1c1ccc(I)cc1)N2 (stereo not shown) [RTI-4229-153]	1.06	132	3.59	–	–
CN1C2CCC1C(C(=O)NCO)C(c1ccc(Cl)cc1)C2 (stereo not shown) [RTI-4229-146]	2.05	144	–	98	–
CN1[C@H]2CC[C@@H]1[C@@H](c1nnn[nH]1)[C@@H](c1ccc(Cl)cc1)C2 [RTI-163, 3β-(4-Chlorophenyl)-tropane-2β-tetrazole]	–	–	–	–	IC50 ([1]; read-out: IC50 NE [3H]-nisoxetine, Table II): 17400 nM; IC50 (serotonin transporter; IC50 5-HT [3H]-paroxatine, Table II): 5460 ± 64 nM
COC(=O)C1C(c2ccc(C)cc2)CC2CCC1N2C (stereo not shown) [RTI-4229-32]	1.71	60	–	–	–
CN1C2CCC1C(C(=O)OCCc1ccc(N)c(I)c1)C(c1ccc(Cl)cc1)C2 (stereo not shown) [RTI-4229-77]	2.51	2250	–	–	–
COC(=O)C1C(c2ccc(F)cc2)CC2CCC1N2C (stereo not shown) [RTI-4229-286]	–	1230	5060	–	–
COC(=O)C1C(c2ccc(Br)cc2)CC2CCC1N2C (stereo not shown) [RTI-4229-51]	1.69	–	240	–	–
CN1C2CCC1C(CO)C(c1ccc(I)cc1)C2 (stereo not shown) [RTI-4229-101]	2.2	–	26	–	IC50 (dopamine transporter; [6]): 2.2 ± 0.19 nM; IC50 (serotonin transporter; [8]): 26 ± 3.2 nM
